Positions of bridges follow the written chain, without caps; N, C: chain ends. Non-standard residues stand in square brackets, D forms with d. Residues, ends and D or L forms follow the SMILES beside them. Hyp = O=C(O)[C@@H]1C[C@@H](O)CN1; Nle = CCCC[C@H](N)C(=O)O; Orn = NCCC[C@H](N)C(=O)O
Assay: In vitro plasma stability and predicted half-life (HPLC main peak area, Example 3)
Assay type: in vitro ADME
Conditions: human plasma (EDTA anticoagulant), 37°C, sampled up to 24 h, predicted half-life calculated with Winolin
Protocol: The modified peptides in this study were designed with non-natural amino acid substitutions at certain non-essential positions to enhance peptide stability and improve druggability. Peptides were dissolved in deionized water to 2 mg/mL, then diluted with acetonitrile to 1 mg/mL and filtered through an organic membrane. 200 µL of the filtrate was transferred to an LC vial as the peptide control. 300 µL of human plasma (comprising EDTA as anticoagulant, Nanjing Senbeijia Biotechnology Co., Ltd., Lot No. SBJ-P-HU011-100 mL) was mixed with 300 µL acetonitrile, centrifuged at 4°C and 12,000 rpm for 5 minutes. The supernatant was filtered through an organic membrane, and 200 µL of the filtrate was transferred to an LC vial as the plasma blank control. For peptide samples, 10 mg of peptide was weighed mixed with 5 mL of human plasma and vortexed thoroughly. 300 µL of peptide-containing plasma was mixed with 300 µL acetonitrile, centrifuged at 4°C and 12,000 rpm for 5 minutes, and the supernatant was filtered through an organic membrane. 200 µL of the filtrate was transferred to an LC vial as the 0 min sample. Peptide-containing plasma was incubated in a 37°C water bath, and samples at other time points were collected using the same procedure as the 0 min sample. For peptides AJ003 and AJ003-1, the sampling time points were 0 min, 5 min, 10 min, 20 min, 30 min, 1 h, 2 h, 4 h, 6 h, 10 h, 12 h, and 24 h. For modified peptides AJ003-34, AJ003-35, AJ003-36, AJ003-37, AJ003-38, AJ003-39, AJ003-40, AJ003-41, and AJ003-42, the time points were 0 min, 10 min, 30 min, 1 h, 4 h, 6 h, 10 h, 12 h, and 24 h. All peptide sample series were analyzed by HPLC, recording the changes in main peak areas over plasma incubation time. Predicted in vitro half-lives were calculated using the pharmacokinetic software Winolin. Due to the presence of tautomers, AJ003 peak areas were difficult to integrate accurately over time. AJ003-1 is an analog of AJ003 in which the threonine at position 5 is substituted with D-threonine; its sequence differs from AJ003 by only one amino acid configuration. […] The in vitro plasma half-lives of modified peptides AJ003-34, AJ003-35, AJ003-36, AJ003-37, AJ003-38, AJ003-39, AJ003-40, AJ003-41, and AJ003-42 were 61.9 h, 45.3 h, 65.3 h, 71.0 h, 26.7 h, 43.0 h, 84.0 h, 30.0 h, and 61.4 h, respectively.

With `CCCC[C@H](NC(=O)[C@@H](NC(=O)[C@H]1CSSC[C@H](NC(=O)[C@H](CO)NC(=O)CN)C(=O)N[C@@H](CO)C(=O)N[C@H]([C@H](C)O)C(=O)N2C[C@H](O)C[C@H]2C(=O)N2C[C@H](O)C[C@H]2C(=O)N[C@@H](CO)C(=O)N1)C(C)C)C(=O)N[C@@H](Cc1c[nH]c2ccccc12)C(=O)N[C@@H](CCCN)C(N)=O` [AJ003-40, GSCS-(D-Thr)-Hyp-Hyp-S-(D-Cys)-V-Nle-W-Orn-NH2 (3,9 disulfide bond)] (H-GSCS[dT][Hyp][Hyp]S[dC]V[Nle]W[Orn]-NH2; disulfide 3-9) the half-life at 2 mg/mL was 84 h.

Reference: patent publication EP4725956A1, “MODIFIED POLYPEPTIDE AND USE THEREOF IN FIELD OF ANALGESIA” (Nanjing Anji Biotechnology Co., Ltd., priority 2023, dated 2024)
